Common to all, as to type: functional, cell-based
One data set deals with Estrogen receptor beta (Homo sapiens, UniProt Q92731). Description: Agonist activity at ERbeta-LBD expressed in HEK293 cells assessed as Gal4-DBD interaction by cellular mammalian one hybrid assay relative to estradiol.
Data set [1] has as its target T1, Peroxisome proliferator-activated receptor gamma (Homo sapiens) (UniProt P37231).
T1 sequence (whole entry): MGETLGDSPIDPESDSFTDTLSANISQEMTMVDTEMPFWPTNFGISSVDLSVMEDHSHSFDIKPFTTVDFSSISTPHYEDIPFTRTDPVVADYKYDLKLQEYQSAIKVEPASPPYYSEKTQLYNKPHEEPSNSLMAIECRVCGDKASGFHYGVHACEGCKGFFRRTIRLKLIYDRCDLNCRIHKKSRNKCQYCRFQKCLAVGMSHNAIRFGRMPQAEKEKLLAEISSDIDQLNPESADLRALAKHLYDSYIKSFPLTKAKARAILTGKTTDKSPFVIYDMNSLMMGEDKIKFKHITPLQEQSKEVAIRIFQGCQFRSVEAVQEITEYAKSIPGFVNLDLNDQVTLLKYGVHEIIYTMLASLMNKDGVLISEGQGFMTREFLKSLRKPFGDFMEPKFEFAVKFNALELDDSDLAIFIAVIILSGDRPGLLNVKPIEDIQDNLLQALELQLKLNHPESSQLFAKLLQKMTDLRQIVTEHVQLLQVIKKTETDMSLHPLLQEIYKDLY
Description: Agonist activity at PPARgamma-LBD expressed in HEK293 cells assessed as Gal4-DBD interaction by cellular mammalian one hybrid assay relative to rosiglitazone.

Data set [2] addresses T2, PXR (nuclear receptor subfamily 1 group I member 2) (Homo sapiens, UniProt O75469).
T2 sequence (O75469 whole entry): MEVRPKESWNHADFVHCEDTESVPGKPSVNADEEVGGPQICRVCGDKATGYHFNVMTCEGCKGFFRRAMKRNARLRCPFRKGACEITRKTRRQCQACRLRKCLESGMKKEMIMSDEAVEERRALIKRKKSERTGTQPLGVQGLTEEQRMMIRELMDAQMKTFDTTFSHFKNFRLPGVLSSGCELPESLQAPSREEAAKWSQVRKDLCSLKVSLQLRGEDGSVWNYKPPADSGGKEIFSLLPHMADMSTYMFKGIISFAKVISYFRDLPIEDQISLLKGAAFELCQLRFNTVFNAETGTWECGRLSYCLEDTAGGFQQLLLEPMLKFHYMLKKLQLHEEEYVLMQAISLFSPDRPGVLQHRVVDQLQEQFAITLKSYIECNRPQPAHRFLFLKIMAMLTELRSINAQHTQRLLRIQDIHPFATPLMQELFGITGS
Description: Agonist activity at PXR-LBD expressed in HEK293 cells assessed as Gal4-DBD interaction by cellular mammalian one hybrid assay relative to SR-12813. The following applies: HEK293 cells expressing PXR-LBD, read-out: Efficacy.

Data set [3] concerns the target T3, Retinoic acid receptor beta (Homo sapiens, UniProt P10826).
T3 sequence (P10826 whole entry): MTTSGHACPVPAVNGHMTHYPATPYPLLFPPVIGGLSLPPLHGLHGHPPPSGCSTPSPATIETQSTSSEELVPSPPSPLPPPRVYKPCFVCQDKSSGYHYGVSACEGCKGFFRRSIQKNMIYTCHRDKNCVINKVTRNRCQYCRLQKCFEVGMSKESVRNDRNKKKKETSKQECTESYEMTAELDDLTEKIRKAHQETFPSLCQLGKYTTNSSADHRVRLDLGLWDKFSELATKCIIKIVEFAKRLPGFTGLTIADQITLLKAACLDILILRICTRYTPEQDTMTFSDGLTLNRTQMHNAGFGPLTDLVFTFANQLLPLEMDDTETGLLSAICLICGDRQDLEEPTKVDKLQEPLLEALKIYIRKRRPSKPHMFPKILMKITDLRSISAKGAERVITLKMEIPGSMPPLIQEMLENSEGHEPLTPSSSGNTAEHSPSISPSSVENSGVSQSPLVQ
The data set is described as follows: Agonist activity at RARbeta-LBD expressed in HEK293 cells assessed as Gal4-DBD interaction by cellular mammalian one hybrid assay.

Data set [4] has as its target T4, Oxysterols receptor LXR-alpha (Homo sapiens, UniProt Q13133).
T4 sequence (Q13133 whole entry): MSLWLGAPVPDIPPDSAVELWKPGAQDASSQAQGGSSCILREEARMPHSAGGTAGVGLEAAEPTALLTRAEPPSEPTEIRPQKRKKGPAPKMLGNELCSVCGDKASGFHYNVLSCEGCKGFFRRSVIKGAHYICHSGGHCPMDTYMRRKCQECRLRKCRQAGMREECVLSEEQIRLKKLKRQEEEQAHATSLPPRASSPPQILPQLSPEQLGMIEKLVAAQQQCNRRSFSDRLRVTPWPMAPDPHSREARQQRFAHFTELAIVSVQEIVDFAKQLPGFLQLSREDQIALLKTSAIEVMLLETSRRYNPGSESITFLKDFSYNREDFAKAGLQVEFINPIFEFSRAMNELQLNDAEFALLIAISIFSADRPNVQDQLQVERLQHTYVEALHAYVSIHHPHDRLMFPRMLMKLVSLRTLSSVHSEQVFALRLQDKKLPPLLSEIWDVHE
The data set is described as follows: Agonist activity at LXRalpha-LBD expressed in HEK293 cells assessed as Gal4-DBD interaction by cellular mammalian one hybrid assay.

The target in data set [5] is T5, CAR (nuclear receptor subfamily 1 group I member 3) (Homo sapiens, UniProt Q14994).
T5 sequence (Q14994 whole entry): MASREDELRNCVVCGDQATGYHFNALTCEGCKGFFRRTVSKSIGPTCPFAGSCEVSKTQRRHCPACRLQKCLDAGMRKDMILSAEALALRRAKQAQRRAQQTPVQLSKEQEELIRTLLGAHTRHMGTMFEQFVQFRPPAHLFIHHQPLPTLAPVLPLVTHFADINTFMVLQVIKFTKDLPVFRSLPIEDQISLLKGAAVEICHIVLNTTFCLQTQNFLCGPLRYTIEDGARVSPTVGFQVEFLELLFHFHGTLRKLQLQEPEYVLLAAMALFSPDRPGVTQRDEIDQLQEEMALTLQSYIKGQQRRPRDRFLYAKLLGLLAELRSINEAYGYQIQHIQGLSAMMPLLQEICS
Description: Agonist activity at CAR-LBD expressed in HEK293 cells assessed as Gal4-DBD interaction by cellular mammalian one hybrid assay relative to androstane. The following applies: HEK293 cells expressing CAR-LBD, read-out: Efficacy.

The structures appear in SMILES notation.

Estrogen receptor beta, sequence (Q92731 whole entry, the tested form may be a part): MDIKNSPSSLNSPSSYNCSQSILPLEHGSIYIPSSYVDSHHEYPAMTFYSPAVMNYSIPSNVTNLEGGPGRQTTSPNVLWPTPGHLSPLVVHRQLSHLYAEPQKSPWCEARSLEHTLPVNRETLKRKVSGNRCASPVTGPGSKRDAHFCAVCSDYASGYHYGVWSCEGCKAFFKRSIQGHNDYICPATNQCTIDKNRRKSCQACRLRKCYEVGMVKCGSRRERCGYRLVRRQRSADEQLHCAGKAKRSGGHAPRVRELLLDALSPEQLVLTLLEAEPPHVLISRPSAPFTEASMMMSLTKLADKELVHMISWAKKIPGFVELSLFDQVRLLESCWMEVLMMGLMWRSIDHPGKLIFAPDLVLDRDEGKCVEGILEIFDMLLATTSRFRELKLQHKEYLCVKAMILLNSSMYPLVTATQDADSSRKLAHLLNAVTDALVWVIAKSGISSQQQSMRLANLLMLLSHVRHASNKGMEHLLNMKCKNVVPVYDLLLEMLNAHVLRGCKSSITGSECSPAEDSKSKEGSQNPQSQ

Regarding `CC(C)c1onc(-c2c(Cl)cccc2Cl)c1COc1ccc(N(C)Cc2ccc(C(=O)O)cc2)c(C(F)(F)F)n1`, the Efficacy (at Estrogen receptor beta; in data set [1]) was 0% throughout. Also, the figures for the Emax in data set [2] and in data set [5] were 60% and 0%, respectively. Also, the EC50 in data set [3] and in data set [4] was more than 10 µM in each case.
For the compound `CN(Cc1ccc(C(=O)O)cc1)c1ccc(OCc2c(-c3c(Cl)cccc3Cl)noc2C2CC2)nc1C(F)(F)F`, the Efficacy (on Estrogen receptor beta; in data set [1]) was 0% each time. For the same compound, the Emax in data set [2] was determined as 67%; in data set [5], 0%. The EC50 in data set [3] and in data set [4] was more than 10 µM in each case.
On to `CN(Cc1cccc(C(=O)O)c1)c1ccc(OCc2c(-c3c(Cl)cccc3Cl)noc2C2CC2)nc1C(F)(F)F`, for which the Efficacy is 20% at Estrogen receptor beta and 10% in data set [1]. The Emax amounted to 62% in data set [2] and 0% in data set [5]. The EC50 in data set [3] and in data set [4] was more than 10 µM each time.

The record behind these values is ChEMBL document CHEMBL1208782, “Synthesis and pharmacological validation of a novel series of non-steroidal FXR agonists” (Bioorg Med Chem Lett, 2010).
